The values that follow come from BindingDB's records for doi:10.1021/jm701275z (University of Athens, 2008).

Molecules are shown by their SMILES. Bounds are passed on as bounds.

Sequence of Angiotensin-converting enzyme (P12821 whole entry): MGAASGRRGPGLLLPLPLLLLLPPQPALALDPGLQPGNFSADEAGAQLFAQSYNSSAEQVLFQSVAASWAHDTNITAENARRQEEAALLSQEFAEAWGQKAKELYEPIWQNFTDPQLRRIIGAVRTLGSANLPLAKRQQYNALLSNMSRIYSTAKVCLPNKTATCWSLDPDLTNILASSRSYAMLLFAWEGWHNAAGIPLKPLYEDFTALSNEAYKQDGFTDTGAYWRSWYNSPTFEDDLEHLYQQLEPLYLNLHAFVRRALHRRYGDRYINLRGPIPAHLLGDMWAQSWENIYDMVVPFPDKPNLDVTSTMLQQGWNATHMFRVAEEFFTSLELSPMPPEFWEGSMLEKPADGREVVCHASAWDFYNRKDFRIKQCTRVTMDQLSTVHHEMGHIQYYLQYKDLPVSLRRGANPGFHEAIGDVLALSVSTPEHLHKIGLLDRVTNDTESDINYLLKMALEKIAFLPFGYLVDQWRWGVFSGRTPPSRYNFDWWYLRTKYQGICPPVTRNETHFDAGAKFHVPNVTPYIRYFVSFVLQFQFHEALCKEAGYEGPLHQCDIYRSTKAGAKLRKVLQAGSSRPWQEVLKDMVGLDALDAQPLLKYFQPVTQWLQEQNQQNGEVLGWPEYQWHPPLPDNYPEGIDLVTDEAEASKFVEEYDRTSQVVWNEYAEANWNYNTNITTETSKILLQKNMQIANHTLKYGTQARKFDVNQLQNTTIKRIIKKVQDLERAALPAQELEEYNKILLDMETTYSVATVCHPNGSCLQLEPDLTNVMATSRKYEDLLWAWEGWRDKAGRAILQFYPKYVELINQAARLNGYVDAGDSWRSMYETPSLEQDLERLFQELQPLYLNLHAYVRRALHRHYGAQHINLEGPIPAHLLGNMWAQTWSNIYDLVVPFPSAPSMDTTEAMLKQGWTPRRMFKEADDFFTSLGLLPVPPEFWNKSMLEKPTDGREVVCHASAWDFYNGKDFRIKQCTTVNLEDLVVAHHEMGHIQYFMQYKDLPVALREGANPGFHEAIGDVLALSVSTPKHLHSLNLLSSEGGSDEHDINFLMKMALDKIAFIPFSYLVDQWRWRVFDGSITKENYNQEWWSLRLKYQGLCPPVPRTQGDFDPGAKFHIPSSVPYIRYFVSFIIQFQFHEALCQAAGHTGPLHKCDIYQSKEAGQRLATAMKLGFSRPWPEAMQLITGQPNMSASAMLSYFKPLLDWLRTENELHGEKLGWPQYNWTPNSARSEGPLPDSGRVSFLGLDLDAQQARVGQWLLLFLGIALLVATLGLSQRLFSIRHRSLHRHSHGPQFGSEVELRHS

In the test the target is Angiotensin-converting enzyme (Homo sapiens, UniProt P12821). The test can be described thus: Enzyme Inhibition Assay. The following applies: pH 6.8; 25 °C. The method, then:
Continuous assays were performed by recording the fluorescence increase at 405 nm (excitation@ 320 nm) induced by the cleavage of fluorogenic substrate, using 96-well nonbinding surface plates. Fluorescence signals were monitored using a Fluoroscan Ascent photon counter spectrophotometer (Thermo-Labsystems, Courtaboeuf, France) equipped with a temperature control device and a plate shaker. The substrate and enzyme concentrations for the experiments were chosen so as to remain well below 10% of substrate utilization and to observe initial rates. For each inhibitor, percentage inhibition was determined in triplicate experiments at five inhibitor concentrations, chosen to observe a 20-80% range of inhibition. Ki values were determined using the method proposed by Horovitz and Leviski, as described in Proc. Natl. Acad. Sci. U.S.A. 1987, 84, 6654.
Regarding `CC(=O)NC(CC(C)C)C(=O)N1CCCC1P(=O)(O)CC(Cc1ccccc1)C(=O)O` (centres undefined) [The second fraction of the HPLC chromatogram.], the Ki (in general, the equilibrium dissociation constant of an inhibitor or competing ligand from its target) was > 10 µM.

As for `CC(=O)NC(Cc1c[nH]cn1)C(=O)N1CCCC1P(=O)(O)CC(Cc1ccccc1)C(=O)O` (centres undefined) [The second fraction of the HPLC chromatogram.], the Ki was > 10 µM.

Consider `CC(=O)NC(CC(C)C)C(=O)N1CCCC1P(=O)(O)CC(Cc1cc(-c2ccccc2)no1)C(=O)O` (centres undefined) [3-{[1-(2-acetamido-4-methylpentanoyl)pyrrolidin-2-yl](hydroxy)phosphoryl}-2-[(3-phenyl-1,2-oxazol-5-yl)methyl]propanoic acid], for which the Ki was > 10 µM.

Take `CC(=O)NC(Cc1c[nH]cn1)C(=O)N1CCCC1P(=O)(O)CC(Cc1cc(-c2ccccc2)no1)C(=O)O` (centres undefined) [3-({1-[2-acetamido-3-(1H-imidazol-4-yl)propanoyl]pyrrolidin-2-yl}(hydroxy)phosphoryl)-2-[(3-phenyl-1,2-oxazol-5-yl)methyl]propanoic acid]: the Ki is > 10 µM.
